{
  "source": "paper PMC10686989",
  "about": "“Distinct activation mechanisms of β-arrestin-1 revealed by ^19F NMR spectroscopy” (Nature Communications, 2023)",
  "key": {"[1]": {"target": "T1, βarr1 (Homo sapiens, UniProt P49407, C125S/C140L/C150V/C242V/C251V/C269S/C59V/D390C)", "T1 construct": "we started from a full-length functional cysteine-less βarr1 construct[20]; 6xHis-tag with SSG linker and thrombin cleavage site (N, cleaved yes); made in house; host or cells: E. coli BL21(DE3)", "T1 sequence (P49407 whole entry C59V/C125S/C140L/C150V/C242V/C251V/C269S/D390C)": "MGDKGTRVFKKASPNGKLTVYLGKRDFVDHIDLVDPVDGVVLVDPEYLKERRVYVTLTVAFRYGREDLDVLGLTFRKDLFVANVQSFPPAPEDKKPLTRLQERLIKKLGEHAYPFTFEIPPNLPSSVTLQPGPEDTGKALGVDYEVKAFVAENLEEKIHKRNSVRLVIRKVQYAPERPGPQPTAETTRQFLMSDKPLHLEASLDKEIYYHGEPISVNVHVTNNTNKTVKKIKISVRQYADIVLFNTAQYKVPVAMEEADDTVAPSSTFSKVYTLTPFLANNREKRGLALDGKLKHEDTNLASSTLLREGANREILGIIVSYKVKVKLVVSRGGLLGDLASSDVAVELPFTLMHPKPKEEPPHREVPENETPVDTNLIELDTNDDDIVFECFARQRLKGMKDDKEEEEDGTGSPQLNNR", "experiment": "1D 19F NMR of site-specifically 19F (wPSP-6F)-labeled βarr1", "format": "biochemical", "details": "for Linewidth: 298 K, pH 8.0", "from_the_text": "The cysteine-less mutant (C59V/C125S/C140L/C150V/C242V/C251V/C269S) of the long splice variant of human βarr1 was used for introduction of single site cysteine mutation for ^19F labeling. The sequence was codon-optimized for expression in Escherichia coli and cloned into a pET-28a(+) vector (Novagen), with an N-terminal 6xHis-tag, followed by an SSG linker and a thrombin cleavage site. All mutants, including the 1–382 (βarr1-ΔCT) and 1–395 truncation constructs, were generated using site-directed mutagenesis kits (Thermo Fisher). Primer sequences for generating the mutants are listed in Supplementary Table 4.\nEach single-cysteine mutant of βarr1 was diluted to a concentration of 50 μM to be labeled using the sulfoxide-based ^19F probe wPSP-6F[21],[44]. The wPSP-6F stock dissolved in buffer E was added into the protein sample at 1.5-fold molar ratio excess and incubated at 4 °C for 1 h, followed by quenching with twofold molar ratio of dithiothreitol. The sample was then fully exchanged using buffer E to remove excess of small molecules, and subjected to a second round of SEC purification. The purified proteins were concentrated to 100 μM, flash-frozen in liquid nitrogen and stored at −80 °C until use. The purities of all samples were verified by SDS-PAGE.\n(§1) The ^19F-labeled βarr1 was diluted to 50 μM using buffer E before incubation with peptides or PIP2. The V2Rpp, β2AR-GRK2pp/GRK6pp or PIP2 were added at 1.2-fold, 3-fold, and 1.5-fold molar ratio excess to the protein, respectively. For the membrane-bound sample, the reconstituted nanodiscs were added at twofold molar ratio of βarr1. All complexes were incubated at 25 °C for 1 h, and the freshly prepared samples were immediately subjected to ^19F NMR experiments.\n(§2) NMR samples were prepared in buffer E to a final volume of 140 μL, supplemented with 1 mM DTT, 10% D2O for field lock, and 1 μM sodium trifluoroacetate (STFA) as the internal chemical shift reference. All samples were sterile-filtered and loaded into sterile 3 mm NMR microtubes to prevent microbial contamination. Final protein concentrations vary for different constructs, depending on their expression levels and stabilities, but all in the range of 20–50 μM.\nAll ^19F NMR spectra were recorded at 298 K using a Bruker AVANCE III HD 800 MHz spectrometer equipped with a ^1H-^19F/^13C/^15N TCI triple resonance cryogenic probe. All data were acquired and processed using the Bruker Topspin 4.2.0 software. For all 1D ^19F NMR experiments, the traditional one-pulse sequence was used. The carrier frequency was set to −68.0 ppm and the spectra were recorded with 4k points and a spectral width of 15,000 Hz. Because accurate calibration of the 90° excitation pulse length for individual samples is not practical due to the low protein concentrations, we used the 90° pulse length calibrated from a standard sample (0.05% Trifluoro-toluene in CDCl3) for all βarr1 samples. […] Therefore, all the ^19F experiments were conducted with a 100 ms relaxation delay, and acquired using 100,000–200,000 scans depending on the sample condition, yielding a signal-to-noise (S/N) ratio of approximately 50. SDS-PAGE were run for all samples before and after NMR experiments to ensure that no protein degradation occurs during the experiments.\nAll NMR data were analyzed using the MestraNova 12.0.0 software (https://mnova.pl). The spectra were baseline-corrected by the Whittaker Smoother method and applied with a 30 Hz exponential windows function. The ^19F chemical shifts were referenced to STFA at −75.450 ppm. All datasets were processed using the same variables to facilitate comparison. Spectral deconvolutions were performed assuming generalized Lorentzian line shapes. To distinguish overlapping resonances, a LB value of 3 Hz was initially applied to ensure the highest resolution and determine the exact chemical shift values. The spectra were subsequently fitted iteratively using an LB value of 30 Hz. […]"}, "[2]": {"test_system": "βarr1-3Q (K232Q/R236Q/K250Q)", "experiment": "1D 19F NMR of PIP2-binding deficient mutant", "format": "biochemical, human", "details": "H295C site", "procedure": "as §1, §2\nAll ^19F NMR spectra were recorded at 298 K using a Bruker AVANCE III HD 800 MHz spectrometer equipped with a ^1H-^19F/^13C/^15N TCI triple resonance cryogenic probe. […] The carrier frequency was set to −68.0 ppm and the spectra were recorded with 4k points and a spectral width of 15,000 Hz. […]\nAll NMR data were analyzed using the MestraNova 12.0.0 software (https://mnova.pl). […] Peak intensities, integrated peak area and linewidths were determined based on the fitted results."}},
  "data": [
    {"molecule": "CCCCCCCC(=O)OC[C@H](COP(=O)(O)O[C@@H]1[C@H](O)[C@H](O)[C@@H](OP(=O)(O)O)[C@H](OP(=O)(O)O)[C@H]1O)OC(=O)CCCCCCC", "note": "[PIP2, diC8-PI(4,5)P2]", "values": [
      {"measurement": "Linewidth", "setting": "[1]; 1T36 site, ligand-bound state (V2Rpp 1.2-fold, PIP2 1.5-fold), basal 107", "value": 102, "unit": "Hz"},
      {"measurement": "Linewidth increase upon PIP2 binding", "setting": "[1]; C242 site", "value": "~ 50%"},
      {"measurement": "Linewidth", "setting": "[1]; C242 site, PIP2 1.5-fold, basal 80", "value": 120, "unit": "Hz"},
      {"measurement": "Linewidth", "setting": "[1]; C269 site, PIP2 1.5-fold, basal 58", "value": 56, "unit": "Hz"},
      {"measurement": "Linewidth increase upon PIP2 binding", "setting": "[1]; D240C site", "value": "~75", "unit": "%"},
      {"measurement": "Linewidth", "setting": "[1]; D240 site, PIP2 1.5-fold, basal 75", "value": 133, "unit": "Hz"},
      {"measurement": "Linewidth of the S2 resonance", "setting": "[1]; D390C site, released conformation, V2Rpp 1.2-fold or PIP2 1.5-fold", "value": "> 200", "unit": "Hz"},
      {"measurement": "CT displacement/release", "setting": "[1]; D390C site, V2Rpp 1.2-fold, PIP2 1.5-fold", "value": "very slight increase of the active S2 peak at the D390C site"},
      {"measurement": "Linewidth", "setting": "[1]; D390 site, ligand-bound state (V2Rpp 1.2-fold, PIP2 1.5-fold), basal 87", "value": 92, "unit": "Hz"},
      {"measurement": "Linewidth increase upon PIP2 binding", "setting": "[1]; E206C site", "value": "< 10", "unit": "%"},
      {"measurement": "Spectral change at E206C", "setting": "[1]; E206C site, PIP2 alone", "value": "no obvious changes at this site"},
      {"measurement": "Linewidth", "setting": "[1]; E206 site, ligand-bound state (V2Rpp 1.2-fold, PIP2 1.5-fold), basal 120", "value": 129, "unit": "Hz"},
      {"measurement": "Linewidth increase upon PIP2 binding", "setting": "[1]; E283C site", "value": "< 10", "unit": "%"},
      {"measurement": "Linewidth", "setting": "[1]; E283 site, PIP2 1.5-fold, basal 99", "value": 106, "unit": "Hz"},
      {"measurement": "Linewidth increase upon PIP2 binding", "setting": "[1]; E313C site", "value": "~ 50%"},
      {"measurement": "Linewidth", "setting": "[1]; E313 site, ligand-bound state (V2Rpp 1.2-fold, PIP2 1.5-fold), basal 88", "value": 136, "unit": "Hz"},
      {"measurement": "Linewidth", "setting": "[1]; E404 site, ligand-bound state (V2Rpp 1.2-fold, PIP2 1.5-fold), basal 51", "value": 57, "unit": "Hz"},
      {"measurement": "Linewidth", "setting": "[1]; F244 site, ligand-bound state (V2Rpp 1.2-fold, PIP2 1.5-fold), basal 123", "value": 200, "unit": "Hz"},
      {"measurement": "Linewidth increase upon PIP2 binding", "setting": "[1]; F277C site", "value": "< 10", "unit": "%"},
      {"measurement": "Linewidth", "setting": "[1]; F277 site, PIP2 1.5-fold, basal 68", "value": 68, "unit": "Hz"},
      {"measurement": "Linewidth", "setting": "[1]; H198 site, PIP2 1.5-fold, basal 107", "value": 115, "unit": "Hz"},
      {"measurement": "S2 population", "setting": "[1]; H295C site, PIP2 alone, 1.5-fold", "value": "~ 68%"},
      {"measurement": "S2 population", "setting": "[1]; H295C site, PIP2 co-added with GRK2/6-phosphorylated β2AR peptides", "value": "~ 55%"},
      {"measurement": "Gate loop conformational change (S2 state)", "setting": "[1]; H295C site, V2Rpp 1.2-fold, β2AR peptides 3-fold, PIP2 1.5-fold, nanodiscs twofold", "value": "dramatic, albeit incomplete transition to the S2 state"},
      {"measurement": "Linewidth", "setting": "[1]; H295 site, ligand-bound state (V2Rpp 1.2-fold, PIP2 1.5-fold), basal 230", "value": 362, "unit": "Hz"},
      {"measurement": "Linewidth", "setting": "[1]; L68 site, ligand-bound state (V2Rpp 1.2-fold, PIP2 1.5-fold), basal 89", "value": 101, "unit": "Hz"},
      {"measurement": "Linewidth", "setting": "[1]; L71 site, ligand-bound state (V2Rpp 1.2-fold, PIP2 1.5-fold), basal 62", "value": 73, "unit": "Hz"},
      {"measurement": "Linewidth", "setting": "[1]; L100 site, ligand-bound state (V2Rpp 1.2-fold, PIP2 1.5-fold), basal 247", "value": 242, "unit": "Hz"},
      {"measurement": "Linewidth", "setting": "[1]; L191 site, PIP2 1.5-fold, basal 58", "value": 75, "unit": "Hz"},
      {"measurement": "Linewidth", "setting": "[1]; L293 site, ligand-bound state (V2Rpp 1.2-fold, PIP2 1.5-fold), basal 113", "value": 141, "unit": "Hz"},
      {"measurement": "Linewidth", "setting": "[1]; L334 site, ligand-bound state (V2Rpp 1.2-fold, PIP2 1.5-fold), basal 50", "value": 87, "unit": "Hz"},
      {"measurement": "Linewidth", "setting": "[1]; N375 site, ligand-bound state (V2Rpp 1.2-fold, PIP2 1.5-fold), basal 46", "value": 48, "unit": "Hz"},
      {"measurement": "Linewidth", "setting": "[1]; T6 site, ligand-bound state (V2Rpp 1.2-fold, PIP2 1.5-fold), basal 71", "value": 70, "unit": "Hz"},
      {"measurement": "Linewidth", "setting": "[1]; T183 site, ligand-bound state (V2Rpp 1.2-fold, PIP2 1.5-fold), basal 67", "value": 89, "unit": "Hz"},
      {"measurement": "New peak", "setting": "[1]; Y63C site, PIP2 1.5-fold", "value": "appearance of a new peak S3"},
      {"measurement": "Spectral changes in the central crest", "setting": "[1]; Y63C, L68C, L71C, T136C, F244C, V2Rpp 1.2-fold, β2AR peptides 3-fold, PIP2 1.5-fold", "value": "apparently perturbs Y63C and F244C while having little effect on the other sites"},
      {"measurement": "Linewidth", "setting": "[1]; Y63 site, ligand-bound state (V2Rpp 1.2-fold, PIP2 1.5-fold), basal 118", "value": 206, "unit": "Hz"},
      {"measurement": "Transition to S2 state", "setting": "[2]", "value": "such spectral changes were not observed"}
    ]}
  ]
}
